The test system of assay [1] is Enterococcus faecalis ATCC 29212. The conditions noted are these: ATCC 29212, 24 h.
For assay [2], the system named is Gram-negative and -positive bacterial strains. Nature of the assay: MIC against the panel of Gram-negative and -positive bacterial strains. The format is cell-based. The settings on record: 12 strains of Table 3; result in words.
Assay [3] deals with Shigella sonnei ATCC 11060. The settings on record: MHB, 37 °C, 24 h.
The subject of assay [4] is Escherichia coli ATCC 25922. The conditions noted are these: ATCC 25922, 24 h.
In assay [5] the test system is Salmonella Typhimurium ATCC 13311. The conditions noted are these: ATCC 13311, 24 h.
Assay [6] deals with Bacillus cereus ATCC 11778. The conditions noted are these: ATCC 11778, 24 h.
Assay [7] deals with Vibrio cholera O1 Inaba DMST 16261. The conditions noted are these: MHB, 37 °C, 24 h.
For assay [8], the system named is all Gram-negative strains. Put plainly: Mean MIC and therapeutic index, Gram-negative strains. The format is cell-based. The settings on record: 7 Gram-negative strains of Table 3. How it is done: (§1) The antimicrobial activity of the peptides was determined against both Gram-positive and -negative bacteria including 14 MDR P. aeruginosa clinical isolates from Bhumibol Adulyadej Hospital (Tables 1 and 3). The minimal inhibitory concentration (MIC) of each peptide was measured according to a modification of the National Committee for Clinical Laboratory Standards (NCCLS) broth microdilution method as previously described. Briefly, bacterial cells in mid-log phase were cultured in Müeller-Hinton broth (MHB) and then diluted to 10^7 CFU/ml. […] Plates were incubated at 37 °C for 24 h, and MICs were defined as the lowest concentration of peptide that prevented visible turbidity. Cultures without peptides and uninoculated MHB were employed as positive and negative controls, respectively. Colony count assays were performed to determine the minimal bactericidal concentrations (MBCs) for determination of time-killing activity. As previously described, a 50 μl aliquot from each non-turbid well identified in the MIC determination experiment was spread on agar plates.
(§2) To further evaluate the global activity of these peptides, the geometric mean (GM) MIC and the therapeutic index (TI) of each were calculated (Table 3). The TI, a widely used parameter to evaluate cell selectivity and specificity of antimicrobial agents, was calculated as the ratio of MHC (the concentration that causes 10% hemolysis) to the geometric mean of MICs[22]. Higher TIs indicated greater cell selectivity and specificity.

The subject of assay [9] is Staphylococcus epidermidis ATCC 12228. The conditions noted are these: ATCC 12228, 24 h.
Assay [10] relates to Escherichia coli O157:H7 MT strain. The conditions noted are these: E. coli O157:H7 MT strain; MHB, 37 °C, 24 h.
The test system of assay [11] is Pseudomonas aeruginosa ATCC 27853.
Assay [12] concerns Staphylococcus aureus ATCC 25923. The settings on record: ATCC 25923, 24 h.
Assay [13] concerns Acinetobacter baumannii MT strain. The settings on record: MT strain, 24 h.
In assay [14] the test system is all Gram-positive strains. Nature of the assay: Mean MIC and therapeutic index, Gram-positive strains. It counts as cell-based. The settings on record: 5 Gram-positive strains of Table 3. How it is done:
as §1, §2

Assay [15] concerns Listeria monocytogenes 10403 s. The settings on record: 10403 s, 24 h.
Assay [16] relates to MDR P. aeruginosa clinical isolate No.1.
For assay [17], the system named is MDR P. aeruginosa clinical isolate No.10. The settings on record: MDR P. aeruginosa clinical isolate No.10.
For assay [18], the system named is MDR P. aeruginosa clinical isolate No.7. The conditions noted are these: MDR P. aeruginosa clinical isolate No.7.
Assay [19] concerns MDR P. aeruginosa clinical isolate No.14. The settings on record: MDR P. aeruginosa clinical isolate No.14.
For assay [20], the system named is MDR P. aeruginosa clinical isolate No.11. The conditions noted are these: MDR P. aeruginosa clinical isolate No.11.
For assay [21], the system named is MDR P. aeruginosa clinical isolate No.4. The conditions noted are these: MDR P. aeruginosa clinical isolate No.4.
In assay [22] the test system is MDR P. aeruginosa clinical isolate No.6. The settings on record: MDR P. aeruginosa clinical isolate No.6.
In assay [23] the test system is MDR P. aeruginosa clinical isolate No.9. The settings on record: MDR P. aeruginosa clinical isolate No.9.
Assay [24] has as its system MDR P. aeruginosa clinical isolate No.5. The conditions noted are these: MDR P. aeruginosa clinical isolate No.5.
Assay [25] has as its system MDR P. aeruginosa clinical isolate No.12.
Assay [26] relates to MDR P. aeruginosa clinical isolate No.2. The conditions noted are these: MDR P. aeruginosa clinical isolate No.2.
Assay [27] relates to MDR P. aeruginosa clinical isolate No.8. The settings on record: MDR P. aeruginosa clinical isolate No.8.
In assay [28] the test system is MDR P. aeruginosa clinical isolate No.3. The conditions noted are these: MDR P. aeruginosa clinical isolate No.3.
In assay [29] the test system is MDR P. aeruginosa clinical isolate No.13. The conditions noted are these: MDR P. aeruginosa clinical isolate No.13.
[30] abbreviates: P. aeruginosa ATCC 27853, MHB, 10^7 CFU/ml, 37 °C, 24 h, no visible turbidity.

Values after ≈ are worked out from the molar mass of the structure shown. Like-named read-outs stand apart in the source and are kept apart here. Where a SMILES comes first, the peptide text is derived from it. Bridges are numbered along the chain shown (N, C = ends). [ ]: non-standard residue; d: D form. The star is where a group is joined. X1 = CC[C@H](C)CCCCC(=O)*; Dab = NCC[C@H](N)C(=O)O Some results are limits rather than exact numbers.

With `CC[C@H](C)[C@H](NC(=O)[C@H](CC(=O)O)NC(=O)[C@H](Cc1ccccc1)NC(=O)[C@H](CC(C)C)NC(=O)CN)C(=O)N[C@H](C(=O)N[C@@H](CCCCN)C(=O)N[C@@H](CCCCN)C(=O)N[C@H](C(=O)N[C@@H](C)C(=O)NCC(N)=O)C(C)C)C(C)C` [A0] (H-GLFDIVKKVAG-NH2; N-terminus assumed), the MIC in [1], in assay [3], in assay [4], in [5], in assay [6] and in assay [7] was above 250 µg/mL throughout. The MIC (commonly the smallest concentration in the dilution series that meets the test's criterion for growth inhibition) was above 250 µg/mL in assay [9]; above 250 µg/mL in assay [10]; above 250 µg/mL in assay [11] (ATCC 27853, 24 h); above 250 µg/mL in assay [12]; above 250 µg/mL in assay [13]; above 250 µg/mL in assay [15]. Further, the “antibacterial activity against tested microorganisms” value (“antibacterial activity” for short) in assay [2] is “no antibacterial activity”. Moreover, the “GM (Gr.− strains): geometric mean of MIC values from all Gram-negative strains” value (shortened to “GM (Gr.− strains): geometric mean”) in assay [8] was above 250 µg/mL. For the same molecule, the “GM (Gr.+ strains): geometric mean of MIC values from all Gram-positive strains” value (“GM (Gr.+ strains): geometric mean” for short) in assay [14] was above 250 µg/mL.
`CC(C)C[C@H](NC(=O)[C@@H](N)CCCNC(=N)N)C(=O)N[C@@H](Cc1ccccc1)C(=O)N[C@@H](CCCNC(=N)N)C(=O)N[C@@H](CCCNC(=N)N)C(=O)N[C@H](C(=O)N[C@@H](CCCCN)C(=O)N[C@@H](CCCCN)C(=O)N[C@H](C(=O)N[C@@H](C)C(=O)NCC(N)=O)C(C)C)C(C)C` [A3] (H-RLFRRVKKVAG-NH2; N-terminus assumed): the MIC in assay [1], in [3], in assay [4], in [5], in [6] and in assay [7] was above 250 µg/mL in each case. The MIC is above 250 µg/mL in assay [9]; above 250 µg/mL in assay [10]; above 250 µg/mL in [11] (ATCC 27853, 24 h); above 250 µg/mL in assay [12]; above 250 µg/mL in assay [13]; 250 µg/mL (≈ 188 µM) in assay [15]. The “antibacterial activity” value in assay [2] is “no antibacterial activity”. Further, in assay [8], the “GM (Gr.− strains): geometric mean” value is above 250 µg/mL. In assay [14], the “GM (Gr.+ strains): geometric mean” value was above 250 µg/mL.
As for `CC[C@H](C)CCCCC(=O)N[C@@H](CCN)C(=O)N[C@H](C(=O)N[C@@H](CCN)C(=O)N[C@H]1CCNC(=O)[C@H]([C@@H](C)O)NC(=O)[C@H](CCN)NC(=O)[C@H](CCN)NC(=O)[C@H](CC(C)C)NC(=O)[C@@H](CC(C)C)NC(=O)[C@H](CCN)NC1=O)[C@@H](C)O` [Colistin] (X1-[Dab]T[Dab][Dab][Dab][dL]L[Dab][Dab]T; lactam 4-C (inferred); N-terminus assumed), the MIC stood at 1.95 µg/mL (≈ 1.67 µM) in assay [16]; 1.95 µg/mL (≈ 1.67 µM) in assay [17]; 0.98 µg/mL (≈ 0.838 µM) in assay [18]; 0.98 µg/mL (≈ 0.838 µM) in [19]; 1.95 µg/mL (≈ 1.67 µM) in assay [20]; 1.95 µg/mL (≈ 1.67 µM) in assay [21]. Besides, the minimal inhibitory concentration (MIC) in [22] was 1.95 µg/mL (≈ 1.67 µM); in assay [11] (setting [30]) it was at most 0.98 µg/mL; in assay [23], 0.98 µg/mL (≈ 0.838 µM); in assay [24], 1.95 µg/mL (≈ 1.67 µM); in assay [25], 1.95 µg/mL (≈ 1.67 µM); in assay [26], 1.95 µg/mL (≈ 1.67 µM). Moreover, the MIC is 0.98 µg/mL (≈ 0.838 µM) in [27], 1.95 µg/mL (≈ 1.67 µM) in assay [28] and 0.98 µg/mL (≈ 0.838 µM) in assay [29].
As for `CC[C@H](C)[C@H](NC(=O)[C@H](CCCNC(=N)N)NC(=O)[C@H](CCCCN)NC(=O)[C@H](CCCCN)NC(=O)[C@@H](NC(=O)[C@H](CCCCN)NC(=O)[C@H](CCC(=O)O)NC(=O)[C@H](CCCCN)NC(=O)[C@@H](N)CCCNC(=N)N)[C@@H](C)CC)C(=O)NCC(=O)N[C@@H](CCCCN)C(=O)N[C@H](C(=O)N[C@@H](CC(=O)O)C(=O)N[C@@H](CCCNC(=N)N)C(=O)N[C@@H](CC(C)C)C(N)=O)[C@@H](C)CC` [P0] (H-RKEKIKKRIGKIDRL-NH2; N-terminus assumed), the MIC in assay [1], in assay [3], in assay [4], in [5], in assay [6] and in [7] was above 250 µg/mL in each case. Also, the MIC in assay [9] is above 250 µg/mL; in [10], above 250 µg/mL; in [11] (ATCC 27853, 24 h), above 250 µg/mL; in [12], above 250 µg/mL; in [13] it was above 250 µg/mL; in [15], above 250 µg/mL. Further, the “antibacterial activity” value in [2] is “no antibacterial activity”. Further, the “GM (Gr.− strains): geometric mean” value in assay [8] is above 250 µg/mL. For the same molecule, the “GM (Gr.+ strains): geometric mean” value in assay [14] was above 250 µg/mL.
For the molecule Gentamycin, the MIC is above 125 µg/mL in assay [16]; above 125 µg/mL in [17]; 125 µg/mL in assay [18]; above 125 µg/mL in assay [19]; above 125 µg/mL in assay [20]; above 125 µg/mL in assay [21]. The MIC in [22] is above 125 µg/mL; in assay [11] (setting [30]) it was at most 0.98 µg/mL; in assay [23] it was above 125 µg/mL; in assay [24], 125 µg/mL; in [25], 125 µg/mL; in assay [26] it was above 125 µg/mL. The MIC in assay [27], in [28] and in assay [29] was above 125 µg/mL in each case.

The values above are taken from publication PMC7272617 (Scientific Reports, 2020).
